In the supplement of paper PMC10949913:

Experiments:
Assay in all cases: area under concentration-response curve (viability) (AUC (a.u.)); higher = less active
Details in all cases: 48 h
CU-ACC1 = system: CU-ACC1
Method in brief: (§1)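 Three adrenocortical carcinoma cell lines were plated in 1,536-well plates at 500–1,000 cells/well in 5 µL medium, and 23 nL of each library compound was added at 11 concentrations. After 48 h, CellTiter-Glo was applied for 15 minutes at room temperature before luminescence was read. Each plate's signals were normalised to vehicle and empty-well controls. AC50 and area under the curve were taken from fitted concentration-response curves, with only inhibitory or non-responding curve classes retained.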

CU-ACC2 = system: CU-ACC2
Method in brief: as §1

NCI-H295R = system: NCI-H295R
Method in brief: as §1

SMILES	area under concentration-response curve (CU-ACC1)	area under concentration-response curve (CU-ACC2)	area under concentration-response curve (NCI-H295R)
COc1nc(C)cnc1N[S+](=O)([O-])c1cccnc1-c1ccc(-c2nnco2)cc1	520	600	509
CCCCOC(=O)N[S+](=O)([O-])c1sc(CC(C)C)cc1-c1ccc(Cn2ccnc2)cc1	357	412	460
NCCc1ccc(O)c(O)c1	506	586	478
COc1ccc([S+](=O)([O-])NCc2ccc(C(=O)NCCc3ccc(Cl)cn3)cc2)cc1	565	654	614
C[S+](=O)([O-])c1ccc(Oc2cc(F)cc(C#N)c2)c2c1[C@H](O)C(F)(F)C2	571	645	603
COc1cc2nccc(Oc3ccc(NC(=O)NC4CC4)c(Cl)c3)c2cc1C(N)=O	516	623	582
N[C@@H](CCC(=O)O)C(=O)N[C@@H](Cc1c[nH]c2ccccc12)C(=O)O	493	584	519
O=C(NCC[S+](=O)([O-])c1ccc(C(F)(F)F)cn1)c1ccc(Cl)cc1	520	580	544
Nc1ncc(C(=O)NC2CN(C(=O)C3CC3)C2)c2ccc(-c3cccc(F)c3)nc12	538	647	574
C/C=C(/C)C(=O)O[C@H]1C(C)=CC23C(=O)C(C=C(CO)[C@@H](O)[C@]12O)[C@H]1[C@@H](C[C@H]3C)C1(C)C (stereo partly specified)	399	505	484
NC/1=N/C(=O)C2=C([NH]C=C2CCC3=CC=C(C=C3)C(=O)N[C@@H](CCC(O)=O)C(O)=O)N1	523	590	537
Cc1nn(C)c(COc2ccc(N3CCN([S+](=O)([O-])N(C)C)CC3)cc2)c1-c1cccc2c(CCCOc3cccc4ccccc34)c(C(=O)O)n(CCN3CCOCC3)c12	517	580	508
O=C(O)[C@@H](c1ccc(OCc2ccc3ccccc3n2)cc1)C1CCCC1	454	561	493
O=C(O)CNC(=O)C1C(=O)N(C2CCCCC2)C(=O)N(C2CCCCC2)C1=O	473	483	479
O=C(NCc1cccc(O)c1)Nc1nc(-c2ccncc2)cs1	546	582	559
CNC(=O)Cn1cc(-c2ccc3c(c2)C(F)CC32NC(=O)N(CC(=O)N(Cc3ccc(F)cc3)C(C)C(F)(F)F)C2=O)cn1 (stereo unspecified)	500	546	512
Cc1nc(-c2ccc(OCC(C)C)c(C#N)c2)sc1C(=O)O	478	544	306
CC\1=C(C(=O)N(\C=C1)C2=CC=C(C=C2)C3=NC=CO3)/C4=CC5=CN=C(N)N=C5C=C4	547	625	574
CCCC(CCC)C(=O)[O-]	445	482	442
CCc1cccc2c3c([nH]c12)[C@@](CC)(CC(=O)O)OCC3	518	605	525
O=C(CCCc1ccc2cccnc2n1)NCc1cc(-c2ccc(F)c(C(F)(F)F)c2)no1	512	615	491
CCCOc1ccn2c(C(C)=O)cc(-c3ccccc3[S+](C)(=O)[O-])c2c1	485	445	527
C[S+](=O)([O-])Nc1ccc([N+](=O)[O-])cc1Oc1ccccc1	544	639	583
O=C1\C=C/C=C2/[C@H]3CNC[C@H](C3)CN12	593	663	576

SMILES	area under concentration-response curve (CU-ACC1)	area under concentration-response curve (CU-ACC2)	area under concentration-response curve (NCI-H295R)
OC[C@@H](O)[C@@H](O)[C@H](O)[C@@H](O)CO	562	645	592
CNC(=O)c1ccc(-c2cnc3ncc(Cc4ccc5ncccc5c4)n3n2)cc1F	481	520	511
C[C@]12CCC(=O)C(O)=C1CC[C@@H]1[C@@H]2CC[C@]2(C)C(=O)CC[C@@H]12	404	470	417
C[N]1C=C(C2=CC=CC=C12)/C3=C(/C(=O)NC3=O)C4=C[N](C)C5=CC(=CC=C45)[N+]([O-])=O	611	608	454
COC/1=C(\CNC(=O)C2=C(C)[N]([C@H](C)C3CCN(CC3)CC(F)(F)F)C4=C2C=CC=C4)C(=O)N/C(=C1)C	453	556	470
OCCN1C[C@H](O)[C@@H](O)[C@H](O)[C@H]1CO	519	540	489
CCCCCOC(=O)NC\1=N\C(=O)N(\C=C1F)[C@@H]2O[C@H](C)[C@@H](O)[C@H]2O	512	606	559
O=C(Nc1nccs1)C(c1cc(F)ccc1O)N1Cc2ccccc2C1=O (stereo unspecified)	504	557	524
Cc1[nH]c(/C=C2\C(=O)Nc3ccc([S+](=O)([O-])Cc4c(Cl)cccc4Cl)cc32)c(C)c1C(=O)N1CCC[C@@H]1CN1CCCC1	334	351	376
C\C1=C(\C=C(\C#N)C(=O)N1)C2=CC=NC=C2	532	515	543
C[C@@H]1C\C2=C(CCC(=O)C2)/[C@H]3CC[C@@]4(C)[C@@H](CC[C@@]4(O)C#C)[C@H]13	560	592	547
Cn1cnc2c(F)c(Nc3ccc(Br)cc3Cl)c(C(=O)NOCCO)cc21	463	493	500
CCCCn1c(=O)n(Cc2ccccc2F)c(=O)c2nc(Cc3ccc(NC(C)=O)cc3)[nH]c21	491	543	531
c1ccc(CNCc2ccc(CN3CCCNCCNCCCNCC3)cc2)nc1	514	601	542
C[C@@H]1CC(=O)Nc2cccc(-c3ccc4c(c3)c(-c3cnn(C)c3)nn4C)c2N1	517	602	550
Cc1nc2ccc(-n3ncc(C(=O)c4cc5ccccc5[nH]4)c3N)cc2[nH]1	550	595	519
Cn1cc(-c2ccc3nnc(C(F)(F)c4ccc5ncccc5c4)n3n2)cn1	478	583	502
Cc1cc(C)c(/C=C2\C(=O)Nc3ccccc32)[nH]1	513	559	532
C[C@H](CCC(=O)O)[C@H]1CC[C@H]2[C@@H]3[C@H](O)C[C@@H]4C[C@H](O)CC[C@]4(C)[C@H]3CC[C@]12C	477	558	485
COC1=CC=C(C=C1)C/2=C(OC3O[C@@H](C)[C@H](O)[C@@H](O)[C@H]3O)/C(=O)C4=C(O2)C(=C(OC5O[C@H](CO)[C@@H](O)[C@H](O)[C@H]5O)C=C4O)CC=C(C)C (stereo partly specified)	510	624	564
Nc1nc(N)c2nc(CNc3ccc(C(=O)NC(CCC(=O)O)C(=O)O)cc3)cnc2n1 (stereo unspecified)	458	543	515
O=C1N(c2ccccc2)c2ccccc2C1(Cc1ccncc1)Cc1ccncc1	448	543	504
CC1=CC(=O)c2ccccc2C1=O	495	530	501
